Experimental data as given in US20190308988A1, “OPIOID RECEPTOR ANTAGONIST PRODRUGS” (Nirsum Laboratories, Inc., priority 2017, published 2019).
≈ marks a conversion by molar mass, not a printed value. Structures can show the parent of a compound that is named as a salt.

Assays:
[1] = Solubility determination in oil (Table 10); conditions: thermodynamic from solid; for solubility thermodynamic: water, Equilibrium solubility: Water
Experimental: A known amount of test substance (˜40 mg) was weighed into the vial, 100 μL of oil was added and heated to 60° C. and then system was slurried to reach equilibrium. […] Extra oil was added into the vial once compound precipitated out and then the system was re-equilibrated at 1000 rpm at room temperature (25° C.). Final concentration was determined by HPLC method as described below in Table 6a and 6b.

[2] = Dog pharmacokinetic studies, deep intramuscular administration; assay type: in vivo, Beagle dogs; conditions: IM 48 mg/kg, Sesame oil + 1% Benzyl Alcohol; for AUC(0-inf) / half-life: Beagle, dog, plasma, im, 48 mg/kg; for AUC(0-inf): read-out: AUC0-inf (ng · h/mL) prodrug; for half-life: read-out: Half-life t1/2 (hour) prodrug (converted)
Experimental: The purpose of this study is to determine the pharmacokinetics of test compounds in plasma, following deep intramuscular administration to Beagle dogs (n=3, unless otherwise specified).
The dose formulation (concentration—400 mg base equivalents/ml in sesame oil+1% benzyl alcohol, unless otherwise specified) was administered via deep intramuscularly (unless otherwise specified). The injection vehicle was also dosed via deep intramuscular route (unless otherwise specified) on contralateral site of each animal at study initiation. The animals were sedated with Propofol at 6 mg/kg via IV administration. Following sedation hair was carefully removed from around the injection site and the area gently cleaned. Care will be taken to avoid irritating skin during shaving and cleaning the injection site. Then dogs will be dosed with deep IM administration. At least 2.5 cm depth from the surface into the central aspect of the quadriceps or biceps femoris muscle, by angling the needle toward the femur. If the needle hits the femur, simply draws back slightly and then inject. The dose volume will be determined by the animals' body weight collected on the morning of dosing day. For repeated administration, the injection sites may be rotated to minimize tissue injury.
Blood samples were collected from a peripheral vessel from restrained, non-sedated animals per sampling time point.
Approximately 0.8 mL blood will be collected at each time point.
(§1) Each collected blood sample was centrifuged for 4 minutes at 4° C. and 10000 rpm for plasma collection. Plasma was collected and transferred into a pre-labeled PP tube in dry ice at each time point and precipitated immediately using ACN at a ratio of 1:4 (plasma:ACN).
(§2) LC-MS/MS methods for the quantitative determination of test compound in biological matrix were developed. […] The sample analysis was performed concurrently with a set of calibration standards and two sets of QC samples using the LC-MS/MS method.
(§3) Plasma concentration versus time data was analyzed by non-compartmental approaches using the Phoenix WinNonlin 6.3 software program. Cmax, Tmax, T1/2, AUC(0-t), AUC(0-inf), MRT(0-t), MRT(0-inf) and graphs of plasma concentration versus time profile were prepared.

[3] = Polymorph screening of solid state drug substances (Table 23); assay type: physicochemical; conditions: stirred 50 °C 72 hours; for Dry method and appearance: dried solid
[4] = Rat pharmacokinetic studies, intramuscular administration; assay type: in vivo, male Sprague Dawley Rats
Experimental: The purpose of this study is to determine the pharmacokinetics of test compounds in plasma, following intramuscular administration to male Sprague Dawley Rats (n=3, unless otherwise specified).
The dose formulation of 400 mg base equivalents/ml in sesame oil+1% benzyl alcohol (unless otherwise specified) was administered by intramuscular injection. The dose volume was determined by the animals' body weight determined on the morning of dosing day.
as §1, with “(plasma:ACN). Centrifuged again (10 minutes, 12000 rpm) and obtain the supernatant.” for “(plasma:ACN).”
as §2, §3

[5] = 25 °C, oil or lipid, Solubility by volumetric flask method: Cottonseed oil, volumetric flask method, Heating Temp. 60 °C, Obs. Temp. 25 °C
[6] = 25 °C, oil or lipid, Solubility by volumetric flask method: Sesame oil, volumetric flask method, Heating Temp. 60 °C, Obs. Temp. 25 °C
[7] = 40 °C, section 'Solubility by volumetric flask method', Heating Temp. 40 °C, Obs. Temp. 40 °C
[8] = male, Sprague Dawley, rat, plasma, intramuscular, 0.8 mg/kg

## CCCCCCCCCCCOC(=O)OCOc1ccc2c3c1O[C@H]1C(=O)CC[C@@]4(O)C(C2)N(CC2CC2)CC[C@]314 [Compound 4, (((4aS,7aR,12bS)-3-(cyclopropylmethyl)-4a-hydroxy-7-oxo-2,3,4,4a,5,6,7,7a-octahydro-1H-4,12-methanobenzofuro[3,2-e]isoquinolin-9-yl)oxy)methyl undecyl carbonate]
[1]; [5]
  solubility: > 395 mg/mL
[1]; [6]
  solubility: > 400 mg/mL
[1]; [7]
  solubility thermodynamic: < 0.001 mg/mL
[2]
  AUC(0-inf): 829 ng·h/mL

## C=C1CC[C@@]2(O)C3Cc4ccc(OC(=O)OCCCCCCCCCCC)c5c4[C@@]2(CCN3CC2CC2)[C@H]1O5 [Compound 3, (4aS,7aS,12bS)-3-(cyclopropylmethyl)-4a-hydroxy-7-methylene-2,3,4,4a,5,6,7,7a-octahydro-1H-4,12-methanobenzofuro[3,2-e]isoquinolin-9-yl undecyl carbonate]
[1]; [5]
  solubility: > 399 mg/mL
[1]; [6]
  solubility: > 401 mg/mL
[1]; [7]
  solubility thermodynamic: < 0.001 mg/mL
[2]
  AUC(0-inf): 360 ng·h/mL
  half-life: 63.1 h

## C=C1CC[C@@]2(O)C3Cc4ccc(OCOC(=O)OCCCCCCCCCC)c5c4[C@@]2(CCN3CC2CC2)[C@H]1O5 [Compound 35, (((4aS,7aS,12bS)-3-(cyclopropylmethyl)-4a-hydroxy-7-methylene-2,3,4,4a,5,6,7,7a-octahydro-1H-4,12-methanobenzofuro[3,2-e]isoquinolin-9-yl)oxy)methyl decyl carbonate]
[2]
  half-life: 70 h
  AUC0-inf (ng · h/mL) nalmefene or naltrexone: None
  AUC0-inf (ng · h/mL) prodrug: None

## CCCCCCCC/C=C/CCCCCCCCOC(=O)OCOc1ccc2c3c1O[C@H]1C(=O)CC[C@@]4(O)C(C2)N(CC2CC2)CC[C@]314 [Compound 7, (((4aS,7aR,12bS)-3-(cyclopropylmethyl)-4a-hydroxy-7-oxo-2,3,4,4a,5,6,7,7a-octahydro-1H-4,12-methanobenzofuro[3,2-e]isoquinolin-9-yl)oxy)methyl ((E)-octadec-9-en-1-yl) carbonate]
[2]
  AUC(0-inf): 610 ng·h/mL

## CCCCCCCCCCCCOC(=O)Oc1ccc2c3c1O[C@H]1C(=O)CC[C@@]4(O)C(C2)N(CC2CC2)CC[C@]314 [Compound 11, (4aS,7aR,12bS)-3-(cyclopropylmethyl)-4a-hydroxy-7-oxo-2,3,4,4a,5,6,7,7a-octahydro-1H-4,12-methanobenzofuro[3,2-e]isoquinolin-9-yl dodecyl carbonate]
[1]; 25 °C, oil or lipid, Approximate Solubility in Excipient: Cottonseed oil, Heating Temp. 60 °C, Obs. Temp. 25 °C
  solubility at 24 h: < 51 mg/mL
[1]; 25 °C, oil or lipid, Approximate Solubility in Excipient: Sesame oil, Heating Temp. 60 °C, Obs. Temp. 25 °C
  solubility at 24 h: < 50 mg/mL
[1]; 40 °C, oil or lipid, Approximate Solubility in Excipient: Cottonseed oil, Heating Temp. 40 °C, Obs. Temp. 40 °C
  solubility: > 407 mg/mL
[1]; 40 °C, oil or lipid, Approximate Solubility in Excipient: Sesame oil, Heating Temp. 40 °C, Obs. Temp. 40 °C
  solubility: > 407 mg/mL
[1]; 40 °C, organic solvent or mixture, Approximate Solubility in Excipient: Ethanol, Heating Temp. 40 °C, Obs. Temp. 40 °C
  solubility: > 218 mg/mL
[1]; 40 °C, Heating Temp. 40 °C, Obs. Temp. 40 °C
  solubility thermodynamic: 0.0005 mg/mL (≈ 0.000903 mM)
[1]; after slurry in Heptane, temperatures N/A
  solubility thermodynamic: 0.0026 mg/mL (≈ 0.0047 mM)
[3]; Acetone
  XRPD results (Dried): Pattern A
  Dry method and appearance: Evaporation/white powder
[3]; EtOAc
  XRPD results (Dried): Pattern A
  Dry method and appearance: Evaporation/white powder
[3]; Heptane
  XRPD results (Dried): Pattern B
  Dry method and appearance: Evaporation/white powder
[3]; Isopropanol
  XRPD results (Dried): Pattern A
  Dry method and appearance: Evaporation/white powder
[3]; MTBE
  XRPD results (Dried): Pattern A
  Dry method and appearance: Evaporation/white powder

## C=C1CC[C@@]2(O)C3Cc4ccc(OCOC(=O)OCCCCCCCC/C=C/CCCCCCCC)c5c4[C@@]2(CCN3CC2CC2)[C@H]1O5 [Compound 1, (((4aS,7aS,12bS)-3-(cyclopropylmethyl)-4a-hydroxy-7-methylene-2,3,4,4a,5,6,7,7a-octahydro-1H-4,12-methanobenzofuro[3,2-e]isoquinolin-9-yl)oxy)methyl ((E)-octadec-9-en-1-yl) carbonate]
[2]
  AUC(0-inf): 1040 ng·h/mL
  half-life: 261 h

## C=C1CC[C@@]2(O)C3Cc4ccc(OC(=O)CCCCCCCCCCC)c5c4[C@@]2(CCN3CC2CC2)[C@H]1O5 [Compound 59, (4aS,7aS,12bS)-3-(cyclopropylmethyl)-4a-hydroxy-7-methylene-2,3,4,4a,5,6,7,7a-octahydro-1H-4,12-methanobenzofuro[3,2-e]isoquinolin-9-yl dodecanoate, reference compound]
[4]; male, Sprague Dawley, rat, plasma, im, 17 mg/kg, Sesame oil + 1% Benzyl Alcohol, read-out: AUC0-inf (ng · h/mL) prodrug
  AUC(0-inf): 10.4 ng·h/mL
[4]; male, Sprague Dawley, rat, plasma, im, 17 mg/kg, Sesame oil + 1% Benzyl Alcohol, read-out: Half-life t1/2 (hour) prodrug (converted)
  half-life: 15.2 h

## C=C1CC[C@@]2(O)[C@H]3Cc4ccc(O)c5c4[C@@]2(CCN3CC2CC2)[C@H]1O5 [nalmefene HCL, reference compound]
[4]; [8]
  concentration at 1 h: 29.4 ng/mL
  concentration at 2 h: 2.09 ng/mL
  concentration at 4 h: 0.212 ng/mL
  concentration at 8 h: 0.0178 ng/mL

## C=C1CC[C@@]2(O)[C@H]3Cc4ccc(O)c5c4[C@@]2(CCN3CC2CC2)[C@H]1O5.Cl [Nalmefene HCl - IR]
[4]; 0.80 mg/kg, saline
  AUC0-inf (ng · h/mL) nalmefene: 66.0 ng·h/mL
  Terminal Half-life t1/2 (hour) nalmefene: 0.87 h

## CCCCCCCCCCCCCCCCOC(=O)Oc1ccc2c3c1O[C@H]1C(=O)CC[C@@]4(O)C(C2)N(CC2CC2)CC[C@]314 [Compound 21, (4aS,7aR,12bS)-3-(cyclopropylmethyl)-4a-hydroxy-7-oxo-2,3,4,4a,5,6,7,7a-octahydro-1H-4,12-methanobenzofuro[3,2-e]isoquinolin-9-yl hexadecyl carbonate]
[1]; 40 °C, oil or lipid, Approximate Solubility in Excipient: Cottonseed oil, Heating Temp. 60 °C, Obs. Temp. 40 °C
  solubility: 101 to 135 mg/mL (≈ 166 to 221 mM)
[1]; 40 °C, oil or lipid, Approximate Solubility in Excipient: Sesame oil, Heating Temp. 60 °C, Obs. Temp. 40 °C
  solubility: 101 to 134 mg/mL (≈ 166 to 221 mM)
[1]; 40 °C, organic solvent or mixture, Approximate Solubility in Excipient: Ethanol, Heating Temp. 60 °C, Obs. Temp. 40 °C
  solubility: 50 to 100 mg/mL (≈ 82 to 164 mM)
[1]; 40 °C, Heating Temp. 60 °C, Obs. Temp. 40 °C
  solubility thermodynamic: 0.0006 mg/mL (≈ 0.000984 mM)
[3]; Acetone
  XRPD results (Dried): Pattern A
  Dry method and appearance: Evaporation/white powder
[3]; EtOAc
  XRPD results (Dried): Pattern A
  Dry method and appearance: Evaporation/white powder
[3]; Heptane
  XRPD results (Dried): Pattern A
  Dry method and appearance: Evaporation/white powder
[3]; Isopropanol
  XRPD results (Dried): Pattern A
  Dry method and appearance: Evaporation/white powder
[3]; MTBE
  XRPD results (Dried): Pattern A
  Dry method and appearance: Evaporation/white powder
